Two compounds from article PMC8389922, “First-in-Class Cyclic Temporin L Analogue: Design, Synthesis, and Antimicrobial Assessment” (Journal of Medicinal Chemistry, 2021) can be followed below.

Data set [1] concerns S. aureus MRSA ATCC 43300. Description: In vitro time kill assay. The format is cell-based, Staphylococcus aureus. As to conditions: 10^6 CFU/mL, peptide at the MIC (12.5 μM peptide 12; 25 μM peptide 9), 37 °C, CFU counts. Here is the method:
Thus, 12 was further tested against S. aureus ATCC 43300, a methicillin-resistant strain (MRSA), and compared with the linear precursor 9. […] No growth was observed after 24 h. Peptide 9 was bactericidal as well, by killing MRSA within 10 min, but at a higher concentration (25 μM).
Figure 7 In vitro time kill assay. […] The inhibitory effect on bacterial growth was assessed by measuring the number of CFU obtained after the treatment.
The plates were incubated at 37 °C on an orbital shaker at 120 rpm. Viability assessments were performed at 10 min, 30 min, 1 h, 2 h, and 24 h by plating 0.01 mL of undiluted and 10-fold serially diluted samples onto Mueller–Hinton plates in triplicate. After overnight incubation at 37 °C, bacterial colonies were counted and compared with counts from control cultures.

Data set [2] in a line: CD in SUVs, ratio of ellipticities at 222 and 208 nm. The class given is physicochemical. Particulars: peptide 8 μM, lipid 100 μM, phosphate buffer 5 mM pH 7.4, 25 °C, >1.0 indicates oligomeric helices. The text has this: TEXT PRINTED IN THE PICTURE: (c) 9: DOPG/CL mimicking Gram-positive membrane: θ222/ θ208: 1.7 | (c) 12: DOPG/CL mimicking Gram-positive membrane: θ222/ θ208: 2.6 | (c) 17: DOPG/CL mimicking Gram-positive membrane: θ222/ θ208: 1.9 | (f) 9: DOPE/DOPG/CL mimicking Gram-negative membrane: θ222/ θ208: 1.8 | (f) 12: DOPE/DOPG/CL mimicking Gram-negative membrane: θ222/ θ208: 2.1 | (f) 17: DOPE/DOPG/CL mimicking Gram-negative membrane: θ222/ θ208: 1.7
The ratio of the ellipticities at 222 and 208 nm was calculated to discriminate between monomeric and oligomeric states of helices.[64] As observed in our CD spectra, the ratio θ222/θ208 is always greater than 1.0 in both membranes, indicating an α-helical conformation in its oligomeric state (Figure 4c,f).
SUVs were prepared as reported: lipids (Gram-positive, DOPG/CL, 58/42 ratio in moles; Gram-negative DOPG/DOPE/CL, 63/23/12 ratio in moles) were dissolved in chloroform and an identical volume of peptide solution dissolved in TFE was added.[76] Then, the samples were vortexed and lyophilized overnight. CD spectra were recorded at a peptide concentration of 8 μM and at a lipid final concentration of 100 μM. […] CD spectra were recorded at 25 °C on a Jasco J-715 spectropolarimeter in a 1 cm quartz cell using three consecutive scans from 260 to 190 nm, 3 nm bandwidth, a time constant of 16 s, and a scan rate of 10 nm/min.

Bridge positions count the residues as written; N and C are the ends. Square brackets hold non-standard residues; d marks the D form. Peptide text beside a SMILES is read from it.

In the case of `CC[C@H](C)[C@H](NC(=O)[C@H](CCCNC(=N)N)NC(=O)[C@@H]1CCC(=O)NCCCC[C@H](NC(=O)[C@H](Cc2ccccc2)NC(=O)[C@H](Cc2c[nH]c3ccccc23)NC(=O)[C@@H]2CCCN2C(=O)[C@@H](NC(=O)[C@@H](N)Cc2ccccc2)C(C)C)C(=O)N[C@@H](CCCCN)C(=O)N[C@@H](Cc2ccccc2)C(=O)N[C@H](CC(C)C)C(=O)N1)C(=O)N[C@@H](CC(C)C)C(N)=O` [compound 12] (H-FVPWFKKF[dL]ERIL-NH2; lactam 6-10), the “time within which the MRSA strain was killed” value in data set [1] was no more than 30 min.
Turning to `CC[C@H](C)[C@H](NC(=O)[C@H](CCCNC(=N)N)NC(=O)[C@@H]1CCCCn2cc(nn2)C[C@H](NC(=O)[C@H](Cc2ccccc2)NC(=O)[C@H](Cc2c[nH]c3ccccc23)NC(=O)[C@@H]2CCCN2C(=O)[C@@H](NC(=O)[C@@H](N)Cc2ccccc2)C(C)C)C(=O)N[C@@H](CCCCN)C(=O)N[C@@H](Cc2ccccc2)C(=O)NC(CC(C)C)C(=O)N1)C(=O)N[C@@H](CC(C)C)C(N)=O` (stereo in doubt) [compound 17], the values for the θ222/θ208 in data set [2] (CD in DOPE/DOPG/CL SUVs) and in data set [2] (CD in DOPG/CL SUVs) were 1.7 and 1.9, respectively.
